From the CombiSolv-Exp solvation set (Vermeire and Green 2021)

Test: solvent given as SMILES
[1] = in CCCCCCCCC=CCCCCCCCC(=O)OCC(COC(=O)CCCCCCCC=CCCCCCCCC)OC(=O)CCCCCCCC=CCCCCCCCC

## COc1cccc(O)c1
In O
  solvation free energy, 298 K: -7.67 kcal/mol

## C1COCCN1
In C1COCCO1
  solvation free energy, 298 K: -5.72 kcal/mol
In O
  solvation free energy, 298 K: -7.17 kcal/mol

## C=CCl
In O
  solvation free energy, 298 K: -0.59 kcal/mol

## COc1c(Cl)cc(Cl)c(OC)c1O
In O
  solvation free energy, 298 K: -6.44 kcal/mol

## ClC1=C(Cl)C2(Cl)C3C4OC4C(Cl)C3C1(Cl)C2(Cl)Cl (stereo unspecified)
[1]
  solvation free energy, 298 K: -13 kcal/mol
In CCCCCCCCO
  solvation free energy, 298 K: -11.7 kcal/mol

## COc1c(O)c(OC)c(Cl)c(C=O)c1Cl
In O
  solvation free energy, 298 K: -8.68 kcal/mol

## Oc1ccccc1O
In CCCCCC
  solvation free energy, 298 K: -5.88 kcal/mol
In CCCCCCCC
  solvation free energy, 298 K: -6.04 kcal/mol
In Cc1ccc(C)cc1
  solvation free energy, 298 K: -7.95 kcal/mol
In Cc1cccc(C)c1
  solvation free energy, 298 K: -7.97 kcal/mol
In Cc1ccccc1C
  solvation free energy, 298 K: -8.02 kcal/mol
In O
  solvation free energy, 298 K: -9.82 kcal/mol

## Clc1ccc(Cl)c(Cl)c1Cl
[1]
  solvation free energy, 298 K: -7.82 kcal/mol
In CCCCCCCCO
  solvation free energy, 298 K: -7.69 kcal/mol
In O
  solvation free energy, 298 K: -1.34 kcal/mol

## COc1ccccc1N
In O
  solvation free energy, 298 K: -6.12 kcal/mol

## c1cc[nH]c1
In O
  solvation free energy, 298 K: -4.78 kcal/mol

## CC(=O)CC(=O)c1ccc(F)c(F)c1F
In O
  solvation free energy, 298 K: -5.07 kcal/mol

## C=CC1(C)CCC(C(C)C)=CC1C(=C)C (stereo unspecified)
In O
  solvation free energy, 298 K: -0.42 kcal/mol

## COc1ccc(N)cc1
In CC(C)CCO
  solvation free energy, 298 K: -8.92 kcal/mol
In O
  solvation free energy, 298 K: -7.54 kcal/mol

## C1=CCC=C1
In Brc1cccc2ccccc12
  solvation free energy, 298 K: -2.84 kcal/mol
In CC(=O)OCc1ccccc1
  solvation free energy, 298 K: -2.92 kcal/mol
In CN1CCCC1=O
  solvation free energy, 298 K: -3.33 kcal/mol
In CN(C)C=O
  solvation free energy, 298 K: -3.41 kcal/mol
In O
  solvation free energy, 298 K: -0.22 kcal/mol
In c1ccc2ncccc2c1
  solvation free energy, 298 K: -2.88 kcal/mol

## Oc1ccc(Cl)cc1
In CC(C)CC(C)(C)C
  solvation free energy, 298 K: -6.6 kcal/mol
In CCCCCC
  solvation free energy, 298 K: -6.91 kcal/mol
In CCCCCCC
  solvation free energy, 298 K: -6.89 kcal/mol
In CCCCCCCC
  solvation free energy, 298 K: -6.88 kcal/mol
In CCCCCCCCCC
  solvation free energy, 298 K: -6.89 kcal/mol
In Cc1ccc(C)cc1
  solvation free energy, 298 K: -8.29 kcal/mol
In Cc1cccc(C)c1
  solvation free energy, 298 K: -8.39 kcal/mol
In Cc1ccccc1C
  solvation free energy, 298 K: -8.48 kcal/mol
In O
  solvation free energy, 298 K: -7.04 kcal/mol

## COc1cccc(N)c1
In O
  solvation free energy, 298 K: -7.29 kcal/mol

## C=CC(C)CCCC(C)CCCC(C)CCCC(C)C (stereo unspecified)
In O
  solvation free energy, 298 K: 3.75 kcal/mol

## CC(C)C(C)C
In C=CCCCCCCCCCCCCCC
  solvation free energy, 298 K: -3.31 kcal/mol
In CC#N
  solvation free energy, 298 K: -2.4 kcal/mol
In CCCCCCCCCCCCCCCC
  solvation free energy, 298 K: -3.41 kcal/mol
In CCCCCCCCCCCCO
  solvation free energy, 298 K: -3.07 kcal/mol
In CCCCCO
  solvation free energy, 298 K: -3.15 kcal/mol
In CCCCO
  solvation free energy, 298 K: -3.07 kcal/mol
In O
  solvation free energy, 298 K: 2.36 kcal/mol

## CC(C)c1ccccc1
In C1CCOC1
  solvation free energy, 298 K: -6.5 kcal/mol
In CC#N
  solvation free energy, 298 K: -5.53 kcal/mol
In CC(C)=O
  solvation free energy, 298 K: -5.89 kcal/mol
In CC(C)O
  solvation free energy, 298 K: -5.21 kcal/mol
In CCCCCCC
  solvation free energy, 298 K: -5.72 kcal/mol
In CCCCCCCCO
  solvation free energy, 298 K: -5.43 kcal/mol
In CO
  solvation free energy, 298 K: -5.18 kcal/mol
In NC=O
  solvation free energy, 298 K: -3.38 kcal/mol
In O
  solvation free energy, 298 K: -0.34 kcal/mol
In O=CN1CCOCC1
  solvation free energy, 298 K: -5.28 kcal/mol
In OCCO
  solvation free energy, 298 K: -3.54 kcal/mol
In OCCOCCO
  solvation free energy, 298 K: -4.43 kcal/mol
In OCCOCCOCCO
  solvation free energy, 298 K: -4.56 kcal/mol

## c1ccc2c(c1)Sc1ccccc1S2
In C1COCCO1
  solvation free energy, 298 K: -12.8 kcal/mol
In CC(C)CC(C)(C)C
  solvation free energy, 298 K: -11.1 kcal/mol
In CC(C)CCO
  solvation free energy, 298 K: -11.3 kcal/mol
In CC(C)CO
  solvation free energy, 298 K: -11.1 kcal/mol
In CC(C)O
  solvation free energy, 298 K: -11 kcal/mol
In CC(C)OC(C)C
  solvation free energy, 298 K: -11.7 kcal/mol
In CCC(C)O
  solvation free energy, 298 K: -11.2 kcal/mol
In CCCCC(CC)CO
  solvation free energy, 298 K: -11.4 kcal/mol
In CCCCCC
  solvation free energy, 298 K: -11.4 kcal/mol
In CCCCCCC
  solvation free energy, 298 K: -11.3 kcal/mol
In CCCCCCCC
  solvation free energy, 298 K: -11.4 kcal/mol
In CCCCCCCCCC
  solvation free energy, 298 K: -11.3 kcal/mol
In CCCCCCCCCCO
  solvation free energy, 298 K: -11.6 kcal/mol
In CCCCCCCCO
  solvation free energy, 298 K: -11.6 kcal/mol
In CCCCCCCO
  solvation free energy, 298 K: -11.6 kcal/mol
In CCCCCCO
  solvation free energy, 298 K: -11.5 kcal/mol
In CCCCCO
  solvation free energy, 298 K: -11.5 kcal/mol
In CCCCO
  solvation free energy, 298 K: -11.4 kcal/mol
In CCCO
  solvation free energy, 298 K: -11.3 kcal/mol
In CCOCC
  solvation free energy, 298 K: -12.1 kcal/mol
In CO
  solvation free energy, 298 K: -10.9 kcal/mol
In COC(C)(C)C
  solvation free energy, 298 K: -12.1 kcal/mol

## COCCCNc1nc(NC(C)C)nc(SC)n1
In O
  solvation free energy, 298 K: -11.9 kcal/mol

## Cc1cccnc1C
In O
  solvation free energy, 298 K: -4.82 kcal/mol

## CC(=O)CC(C)C
In C1COCCO1
  solvation free energy, 298 K: -5.32 kcal/mol
In CC(=O)N(C)C
  solvation free energy, 298 K: -5.24 kcal/mol
In CCCCCCCC
  solvation free energy, 298 K: -4.34 kcal/mol
In CCCCN(C=O)CCCC
  solvation free energy, 298 K: -5.03 kcal/mol
In CCOP(=O)(OCC)OCC
  solvation free energy, 298 K: -4.94 kcal/mol
In CN1CCCC1=O
  solvation free energy, 298 K: -5.14 kcal/mol
In CN1CCCCC1=O
  solvation free energy, 298 K: -5.12 kcal/mol
In CN1CCN(C)C1=O
  solvation free energy, 298 K: -4.91 kcal/mol
In CNC(C)=O
  solvation free energy, 298 K: -4.82 kcal/mol
In NC=O
  solvation free energy, 298 K: -4.19 kcal/mol
In O
  solvation free energy, 298 K: -3.06 kcal/mol
In O=CN1CCOCC1
  solvation free energy, 298 K: -4.62 kcal/mol
In OCCOCCO
  solvation free energy, 298 K: -4.21 kcal/mol

## C=C(C)C1=CC=C(C)CC1
In O
  solvation free energy, 298 K: -1.35 kcal/mol

## CCCOC(=O)CC
In O
  solvation free energy, 298 K: -2.45 kcal/mol

## CC(=O)c1cccnc1
In O
  solvation free energy, 298 K: -8.26 kcal/mol

## Clc1cc(-c2c(Cl)cc(Cl)c(Cl)c2Cl)c(Cl)c(Cl)c1Cl
In O
  solvation free energy, 298 K: -4.61 kcal/mol
